Measurements from ChEMBL document CHEMBL1201862, “PubChem BioAssay data set” (2004).
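Values below derive from 48-hour exposures of cells grown in 96-well plates, with endpoints linearly interpolated between the two concentrations bracketing the appropriate inhibition level. At the GI50, growth is halved.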 Active and inactive are the calls of the source. No stated cut-off is given here; in the data, active = GI50 up to about 1.1 µM and inactive = higher. Where a SMILES comes first, the peptide text is derived from it. The star is where a group is joined. Fmoc = O=C(OCC1c2ccccc2-c2ccccc21)*; OtBu = CC(C)(C)O*

Key:
Experiment in all cases: NCI-60 cell line screen, 48 h
[1] = system: BT-549
[2] = system: EKVX
[3] = system: HCC 2998
[4] = system: HCT-116
[5] = system: HL-60
[6] = system: HT-29
[7] = system: KM12
[8] = system: M14
[9] = system: MDA-MB-435
[10] = system: NCI-H460
[11] = system: OVCAR-5
[12] = system: OVCAR-8
[13] = system: RPMI-8226
[14] = system: RXF 393
[15] = system: SF-539
[16] = system: SK-OV-3
[17] = system: SNB-19
[18] = system: SW-620
[19] = system: T47D
[20] = system: UACC-257

Measured: GI50

COc1cc(/C=C(\C)[N+](=O)[O-])cc(OC)c1
inactive: [1] 19.2 µM | [2] 19.2 µM | [3] 25.1 µM | [4] 16.1 µM | [5] 2.04 µM | [6] 20 µM | [7] 19.3 µM | [8] 14.8 µM | [9] 14.9 µM | [10] 20.2 µM | [11] 20.1 µM | [12] 15.6 µM | [13] 3.12 µM | [14] 7.48 µM | [15] 9.18 µM | [16] > 100 µM | [17] > 40.9 µM | [18] 4.49 µM | [19] 6.47 µM | [20] 15.5 µM

O=C(O)c1c(CC(Cc2ccc3c(c2)CCCC3)C(=O)O)ccc2c1CCCC2 (stereo not given)
inactive: [1] > 100 µM | [2] > 100 µM | [3] > 100 µM | [4] > 100 µM | [5] > 100 µM | [6] > 100 µM | [7] > 100 µM | [8] > 100 µM | [9] > 100 µM | [10] > 100 µM | [11] > 100 µM | [12] > 100 µM | [13] > 100 µM | [14] > 100 µM | [15] > 100 µM | [16] > 100 µM | [17] > 100 µM | [18] > 100 µM | [19] > 100 µM | [20] > 100 µM

CC1(c2ccc(F)cc2)CC(c2ccc(F)cc2)=C(C#N)C(=C(C#N)C#N)N1 (stereo not given)
inactive: [1] 24.9 µM | [2] 17 µM | [3] 14.5 µM | [4] 15.6 µM | [5] 6.31 µM | [6] 15.4 µM | [7] 15 µM | [8] 18.7 µM | [9] 16.6 µM | [10] 18 µM | [11] 19.8 µM | [12] 20.1 µM | [13] 5.55 µM | [14] 12.8 µM | [15] 25.7 µM | [16] 21.8 µM | [17] 17.4 µM | [18] 7.57 µM | [19] 13.3 µM | [20] 15.3 µM

CC(C)C(NC(=O)OCC1c2ccccc2-c2ccccc21)C(=O)NC(CCC(=O)OC(C)(C)C)C(=O)OC(C)(C)C (stereo not given) (Fmoc-Val-Glu(OtBu)-OtBu; configuration not given here)
inactive: [1] > 100 µM | [2] > 100 µM | [3] > 100 µM | [4] 4.42 µM | [5] 4.14 µM | [6] > 100 µM | [7] > 29.2 µM | [8] > 100 µM | [9] > 100 µM | [10] 21.2 µM | [11] > 100 µM | [12] 23.9 µM | [13] 2.92 µM | [14] > 20 µM | [15] 24.1 µM | [16] > 100 µM | [17] > 100 µM | [18] > 71.4 µM | [19] 8.57 µM | [20] > 100 µM

C=C1C(=O)C23CC1C[C@H](OC(C)=O)C2C1(C)C(OC(C)=O)C[C@H](O)C(C)(C)[C@H]1C(O)[C@@H]3OC(C)=O (stereo not given in full)
inactive: [1] 3.03 µM | [2] 13.1 µM | [3] 21.2 µM | [4] 5.02 µM | [5] 3.66 µM | [6] 15.5 µM | [7] 33 µM | [8] 6.5 µM | [9] 8.09 µM | [10] 26.7 µM | [11] 14.6 µM | [12] 2.96 µM | [13] 4.27 µM | [14] 7.24 µM | [15] 2.43 µM | [16] 24.8 µM | [17] 21.5 µM | [18] 2.48 µM | [19] 6.67 µM | [20] 11.9 µM

N#CC1C(=O)SC2c3ccccc3C(=O)c3ccccc3C12 (stereo not given)
inactive: [1] > 10 µM | [2] > 10 µM | [3] > 10 µM | [4] > 10 µM | [5] > 10 µM | [6] > 10 µM | [7] > 10 µM | [8] > 10 µM | [9] > 10 µM | [10] > 10 µM | [11] > 10 µM | [12] > 10 µM | [13] > 10 µM | [14] > 10 µM | [15] > 10 µM | [16] > 10 µM | [17] > 10 µM | [18] > 10 µM | [19] > 10 µM | [20] > 10 µM

CC(=O)/C(=C/NC(=S)c1cccnc1)C(=O)Nc1ccccc1C
inactive: [1] > 100 µM | [2] > 100 µM | [3] > 100 µM | [4] 83 µM | [5] 2.37 µM | [6] > 100 µM | [7] > 100 µM | [8] > 100 µM | [9] > 100 µM | [10] > 100 µM | [11] > 100 µM | [12] 52.6 µM | [13] > 100 µM | [14] > 100 µM | [15] 30.9 µM | [16] > 100 µM | [17] > 100 µM | [18] > 100 µM | [19] > 100 µM | [20] > 100 µM
